# Laboratory results from patent publication US20070259889A1, “Protein Binding Compounds” (priority 2003, published 2007).
# Target: bovine serum albumin (BSA) (Bos taurus, UniProt P02769)
# Experiment: Protein binding studies (albumin binding, centrifugal ultrafiltration, HPLC)
# Type: in vitro ADME
# Conditions: didanosine and didanosine prodrugs; method of Example 7: 4% BSA in water, 30 minutes at 37° C., 10,000 MWCO centrifugal filter, phosphate buffer pH 7.4 reference
# Procedure: The compound (approximately 5 mg) was dissolved in DMSO (approximately 1.8 ml). A small sample of this DMSO solution (approximately 5 mg) was added to a solution of bovine serum albumin (BSA) in water (approximately 1.8 ml, 4% BSA). Another sample of the DMSO solution (approximately 5 mg) was added to a solution of phosphate buffer pH 7.4 (isotonic) (approximately 1.8 ml).
# Both samples were shaken in a water bath for 30 minutes at 37° C.
# The devices were centrifugated at 4000 rpm for 1 hour at 37° C.
# The amount of drug in the filtrates was determined by HPLC(C-18 column, phosphate buffer pH 2.2/acetonitrile, UV detection).
# bovine serum albumin (BSA), sequence (P02769 25-607): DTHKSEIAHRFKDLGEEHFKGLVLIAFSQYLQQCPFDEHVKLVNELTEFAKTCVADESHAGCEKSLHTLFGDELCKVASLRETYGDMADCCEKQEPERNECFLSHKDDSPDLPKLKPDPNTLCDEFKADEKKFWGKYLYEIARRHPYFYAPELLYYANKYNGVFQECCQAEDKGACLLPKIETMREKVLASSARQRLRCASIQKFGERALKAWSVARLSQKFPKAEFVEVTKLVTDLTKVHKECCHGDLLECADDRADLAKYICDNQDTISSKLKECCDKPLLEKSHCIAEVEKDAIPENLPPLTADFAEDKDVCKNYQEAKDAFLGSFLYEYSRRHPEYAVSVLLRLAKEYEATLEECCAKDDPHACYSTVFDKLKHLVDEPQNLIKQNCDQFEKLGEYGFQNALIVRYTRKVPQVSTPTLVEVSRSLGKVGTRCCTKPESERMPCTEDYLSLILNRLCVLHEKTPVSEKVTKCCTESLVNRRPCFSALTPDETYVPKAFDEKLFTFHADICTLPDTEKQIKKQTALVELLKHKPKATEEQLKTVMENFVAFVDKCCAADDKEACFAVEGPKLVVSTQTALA
row,% Albumin binding,Compound
1,94%,"O=C(O)CCCCCCCCCCC(=O)OCC1CCC(n2cnc3c(=O)[nH]cnc32)O1 (stereo not shown) [2′,3′-dideoxy-5′-hydrogen dodecanedioate inosine]"
2,100%,"O=C(O)CCCCCCCCCCCCCCC(=O)OCC1CCC(n2cnc3c(=O)[nH]cnc32)O1 (stereo not shown) [2′,3′-dideoxy-5′-hydrogen hexadecanedioate inosine]"
3,10%,"O=C(O)CCCCC(=O)OCC1CCC(n2cnc3c(=O)[nH]cnc32)O1 (stereo not shown) [2′,3′-dideoxy-5′-hydrogen hexanedioate inosine]"
4,40%,"O=C(O)CCCCCCC(=O)OCC1CCC(n2cnc3c(=O)[nH]cnc32)O1 (stereo not shown) [2′,3′-dideoxy-5′-hydrogen octanedioate inosine]"
